Results taken from patent publication US6630075B2, “Use of fluorinated ketones in fire extinguishing compositions” (3M Innovative Properties Company, priority 1999, dated 2003).

Assay: Micro-Cup Burner Test (extinguishing concentration; Mass Ratio Calculation vs HALON 1211)
Settings: for Mass Ratio to HALON™ 1211: calculated from extinguishing volume % and molecular weight relative to HALON 1211 (165 g/mole); for Ext. Conc. (vol %): volume % in air required to extinguish the flame within an average time of 30 seconds or less, propane fuel
Source text: The Micro-Cup Burner Test is a laboratory test which measures the extinguishing ability of an agent based on the quantity of agent required to extinguish a fire under the following test conditions. The Micro-Cup Burner Test utilizes a quartz concentric-tube laminar-diffusion flame burner (micro-cup burner, of similar design to the above-described cup apparatus) aligned vertically with all flows upward. A fuel, typically propane unless otherwise specified, flows at 10.0 sccm (standard cubic centimeters per minute) through a 5-mm I.D. inner quartz tube which is centered in a 15-mm I.D. quartz chimney. The chimney extends 4.5 cm above the inner tube. Air flows through the annular region between the inner tube and the chimney at 1000 sccm. Prior to the addition of extinguishing composition, a visually stable flame is supported on top of the inner tube, and the resulting combustion products flow out through the chimney. An extinguishing composition to be evaluated is introduced into the air stream upstream of the burner. Liquid compositions are introduced by a syringe pump (which is calibrated to within 1%) and are volatilized in a heated trap. Gaseous compositions are introduced via a mass-flow controller to the air stream upstream from the burner. For consistency, the air-gaseous composition mixture then flows through the heated trap prior to its introduction to the flame burner. All gas flows are maintained by electronic mass-flow controllers which are calibrated to within 2%. The fuel is ignited to produce a flame and is allowed to burn for 90 seconds. After 90 seconds, a specific flow rate of composition is introduced, and the time required for the flame to be extinguished is recorded. The reported extinguishing concentrations are the recorded volume % of extinguishing composition in air required to extinguish the flame within an average time of 30 seconds or less.
The above-mentioned cup burner test measures the performance of an extinguishing composition by determining the minimum volume percent of composition in air required to extinguish a test fire. However, it is often desirable to directly compare the fire performance of an experimental extinguishing composition (e.g., a fluorinated ketone) against the performance of a state-of-the-art extinguishing composition, such as HALON™ 1211 fire extinguishing agent (CF2ClBr, a bromochlorofluorocarbon). One way to make such a comparison is to derive the mass ratio of experimental composition to HALON™ 1211 fire extinguishing agent from the volume percentages of each composition required for extinguishing. The mass ratio can be calculated by dividing the experimental composition's extinguishing volume percent by the HALON™ 1211 agent's extinguishing volume percent and multiplying the resulting quotient (which, according to the ideal gas law, also represents the ratio of mole percents) times the weight average molecular weight of the experimental composition divided by the molecular weight of HALON™ 1211 agent (165 g/mole).
In Comparative Example C1, the extinguishing concentration (volume % in air) of HALON™ 1211 fire extinguishing agent was determined as using the Micro-Cup Burner Test.
In Examples 1-16, the extinguishing concentration of several perfluorinated ketones was also determined using the Micro-Cup Burner Test. The mass ratio as compared to HALON™ 1211 fire extinguishing agent was then calculated using the Mass Ratio Calculation.
In Comparative Examples C2-C11, various fluorinated extinguishing compositions known in the art (hydrofluorocarbons, perfluorocarbons, hydrochlorofluorocarbons, hydrofluoroethers, and iodofluorocarbons) were evaluated for their extinguishing concentration, and subsequently their mass ratios were calculated with respect to HALON™ 1211 agent. […]

| SMILES | Mass Ratio to HALON™ 1211 | Ext. Conc. (vol %) |
| --- | --- | --- |
| FC(F)(F)CC(F)(F)F [Comparative Example C3, 1,1,1,3,3,3-hexafluoropropane, reference compound] | 1.61 | 6.3 vol % |
| O=C1C(F)(F)C(F)(F)C(F)(F)C(F)(F)C1(F)F [Example 15, decafluorocyclohexanone] | 2.80 | 6.0 vol % |
| O=C(C(F)(F)C(F)(F)OC(F)(F)F)C(F)(C(F)(F)F)C(F)(F)F [Example 14, 1,1,2,2,4,5,5,5-octafluoro-1-trifluoromethoxy-4-trifluoromethylpentan-3-one] | 2.76 | 4.3 vol % |
| O=C(C(=O)C(F)(C(F)(F)F)C(F)(F)F)C(F)(C(F)(F)F)C(F)(F)F [Example 11, 1,1,1,2,5,6,6,6-octafluoro-2,5-bis(trifluoromethyl)hexan-3,4-dione] | 2.57 | 4.0 vol % |
| FC(F)(F)C(F)(F)C(F)(F)C(F)(F)F [Comparative Example C7, perfluoro-n-butane, reference compound] | 2.12 | 5.3 vol % |
| FC(F)(F)I [Comparative Example C2, iodotrifluoromethane, reference compound] | 1.14 | 3.5 vol % |
| CC(=O)C(F)(F)C(F)(F)C(F)(F)C(F)(F)F [Comparative Example C13, perfluorobutyl methyl ketone, reference compound] | 2.77 | 6.3 vol % |
| O=C(C(F)(F)C(F)(F)C(F)(F)F)C(F)(C(F)(F)F)C(F)(F)F [Example 7, 1,1,1,2,4,4,5,5,6,6,6-undecafluoro-2-trifluoromethylhexan-3-one] | 2.21 | 3.6 vol % |
| O=C(C(F)(F)C(F)(F)C(F)(F)C(F)(F)F)C(F)(C(F)(F)F)C(F)(F)F [Example 16, 1,1,1,2,4,4,5,5,6,6,7,7,7-tridecafluoro-2-trifluoromethylheptan-3-one] | 3.00 | 4.3 vol % |
| COC(F)(F)C(F)(F)C(F)(F)C(F)(F)F [Comparative Example C10, perfluorobutyl Methyl Ether, reference compound] | 2.52 | 6.1 vol % |
| COC(F)(C(F)(F)F)C(F)(C(F)(F)F)C(F)(F)F (stereo not shown) [Comparative Example C9, 1,1,1,2,3,4,4,4-octafluoro-3-trifluoromethyl-2-methoxybutane, reference compound] | 2.27 | 4.5 vol % |
| COC(F)(F)C(F)(F)C(F)(F)F [Comparative Example C11, 1,1,1,2,2,3,3-heptafluoro-3-methoxypropane, reference compound] | 2.52 | 7.5 vol % |
| O=C(CC(=O)C(F)(F)F)C(F)(F)F [Example 10, 1,1,1,5,5,5-hexafluoropentan-2,4-dione] | 2.55 | 7.3 vol % |
| O=C(C(F)(F)C(F)(F)F)C(F)(F)C(F)(F)C(F)(F)F [Example 9, 1,1,1,2,2,4,4,5,5,6,6,6-dodecafluorohexan-3-one] | 2.39 | 4.5 vol % |
| FC(F)(F)C(F)(F)C(F)(F)F [Comparative Example C6, perfluoro-n-propane, reference compound] | 2.05 | 6.5 vol % |
| O=C(C(F)(F)F)C(F)(F)C(F)(F)C(F)(F)C(F)(F)C(F)(F)C(F)(F)F [Example 4, 1,1,1,3,3,4,4,5,5,6,6,7,7,8,8,8-hexadecafluorooctan-2-one] | 2.17 | 3.1 vol % |
| O=C(C(F)(F)Cl)C(F)(C(F)(F)F)C(F)(F)F [Example 8, 1-chloro-1,1,3,4,4,4-hexafluoro-3-trifluoromethyl-butan-2-one] | 2.23 | 4.7 vol % |
| O=C(C(F)(F)C(F)F)C(F)(C(F)(F)F)C(F)(F)F [Example 6, 1,1,1,2,4,4,5,5-octafluoro-2-trifluoromethylpentan-3-one] | 2.20 | 4.4 vol % |
| O=C(C(F)(C(F)(F)F)C(F)(F)F)C(F)(C(F)(F)F)C(F)(F)F [Example 2, 1,1,1,2,4,5,5,5,6,6,6-octafluoro-2,4-bis(trifluoromethyl)pentan-3-one] | 2.03 | 3.3 vol % |
| O=C(C(F)(F)C(F)(F)C(F)(F)F)C(F)(F)C(F)(F)C(F)(F)F [Example 12, 1,1,1,2,2,3,3,5,5,6,6,7,7,7tetradecafluoroheptan-4-one] | 2.64 | 4.3 vol % |
| CC(=O)C(F)(C(F)(F)F)C(F)(F)F [Comparative Example C12, 3,4,4,4-tetrafluoro-3-trifluoromethylbutan-2-one, reference compound] | 2.42 | 6.8 vol % |
| FC(F)(F)C(F)(F)C(F)(F)C(F)(F)C(F)(F)C(F)(F)F [Comparative Example C8, perfluoro-n-hexane, reference compound] | 2.27 | 4.0 vol % |
| FC(C(F)(F)F)C(F)(F)F [Comparative Example C5, 1,1,1,2,3,3,3-heptafluoropropane, reference compound] | 1.90 | 6.6 vol % |
| O=C(C(F)(F)F)C(F)(F)C(F)(F)F [Example 13, 1,1,1,3,3,4,4,4-octafluorobutan-2-one] | 2.68 | 7.4 vol % |
| FC(F)(Cl)Br [Comparative Example C1, bromochlorodifluoromethane, reference compound] | 1.00 | 3.6 vol % |
| O=C(C(F)(F)F)C(F)(C(F)(F)F)C(F)(F)F [Example 5, 1,1,1,3,4,4,4-heptafluoro-3-trifluoromethylbutan-2-one] | 2.19 | 4.9 vol % |
